Test results: ChEMBL document CHEMBL4190253, “Synthesis of novel 5-(aroylhydrazinocarbonyl)escitalopram as cholinesterase inhibitors” (Eur J Med Chem, 2017)

Tests used:
[1] = target: Cholinesterase (Equus caballus) (UniProt P81908); assay: Inhibition of equine serum BCHE at 0.5 mM using butyrylthiocholine iodide as substrate preincubated for 10 mins followed by substrate addition measured after 30 mins by Ellman's method relative to control
[2] = target: Acetylcholinesterase (Electrophorus electricus, UniProt O42275); assay: Inhibition of electric eel AChE using acetylthiocholine iodide as substrate preincubated for 10 mins followed by substrate addition measured after 30 mins by Ellman's method
Sequence of Acetylcholinesterase (O42275 whole entry): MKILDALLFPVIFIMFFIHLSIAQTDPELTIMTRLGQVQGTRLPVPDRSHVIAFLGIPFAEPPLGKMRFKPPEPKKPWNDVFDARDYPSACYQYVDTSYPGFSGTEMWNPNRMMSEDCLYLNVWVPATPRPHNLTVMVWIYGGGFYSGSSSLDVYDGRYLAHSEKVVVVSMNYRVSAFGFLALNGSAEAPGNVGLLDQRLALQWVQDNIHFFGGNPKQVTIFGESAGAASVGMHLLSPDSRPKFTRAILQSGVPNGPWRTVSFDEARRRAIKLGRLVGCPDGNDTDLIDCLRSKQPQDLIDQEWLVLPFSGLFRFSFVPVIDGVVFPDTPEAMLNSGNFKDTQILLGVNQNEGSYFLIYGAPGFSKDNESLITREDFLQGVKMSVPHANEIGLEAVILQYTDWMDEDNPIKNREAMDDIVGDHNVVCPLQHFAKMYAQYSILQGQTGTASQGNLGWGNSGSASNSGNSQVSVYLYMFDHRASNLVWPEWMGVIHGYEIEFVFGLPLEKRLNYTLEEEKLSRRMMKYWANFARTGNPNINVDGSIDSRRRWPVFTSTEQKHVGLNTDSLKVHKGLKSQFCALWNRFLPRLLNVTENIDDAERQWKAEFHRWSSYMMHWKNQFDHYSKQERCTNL

[3] = target: Acetylcholinesterase (Electrophorus electricus) (UniProt O42275); assay: Inhibition of electric eel AChE at 0.5 mM using acetylthiocholine iodide as substrate preincubated for 10 mins followed by substrate addition measured after 30 mins by Ellman's method relative to control
Sequence of Acetylcholinesterase (Electrophorus electricus) (O42275 24-633 limits assumed): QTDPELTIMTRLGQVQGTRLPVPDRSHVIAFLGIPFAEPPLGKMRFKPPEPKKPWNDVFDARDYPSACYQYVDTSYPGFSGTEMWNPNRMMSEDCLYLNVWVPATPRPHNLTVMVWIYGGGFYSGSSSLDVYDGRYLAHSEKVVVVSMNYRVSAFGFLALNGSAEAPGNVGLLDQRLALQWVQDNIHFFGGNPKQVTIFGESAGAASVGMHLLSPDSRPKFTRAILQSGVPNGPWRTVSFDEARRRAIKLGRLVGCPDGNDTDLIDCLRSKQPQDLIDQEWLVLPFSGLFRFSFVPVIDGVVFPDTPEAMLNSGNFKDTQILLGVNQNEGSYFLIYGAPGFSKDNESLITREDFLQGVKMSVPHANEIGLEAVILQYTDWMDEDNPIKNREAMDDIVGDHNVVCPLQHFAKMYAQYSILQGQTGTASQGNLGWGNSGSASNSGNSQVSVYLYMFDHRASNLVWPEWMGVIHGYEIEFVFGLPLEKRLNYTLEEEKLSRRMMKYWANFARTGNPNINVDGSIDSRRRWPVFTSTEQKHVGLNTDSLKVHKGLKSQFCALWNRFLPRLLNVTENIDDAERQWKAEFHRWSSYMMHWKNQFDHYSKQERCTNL

[4] = target: Cholinesterase (Equus caballus, UniProt P81908); assay: Inhibition of equine serum BCHE using butyrylthiocholine iodide as substrate preincubated for 10 mins followed by substrate addition measured after 30 mins by Ellman's method
Sequence of Cholinesterase (P81908 whole entry): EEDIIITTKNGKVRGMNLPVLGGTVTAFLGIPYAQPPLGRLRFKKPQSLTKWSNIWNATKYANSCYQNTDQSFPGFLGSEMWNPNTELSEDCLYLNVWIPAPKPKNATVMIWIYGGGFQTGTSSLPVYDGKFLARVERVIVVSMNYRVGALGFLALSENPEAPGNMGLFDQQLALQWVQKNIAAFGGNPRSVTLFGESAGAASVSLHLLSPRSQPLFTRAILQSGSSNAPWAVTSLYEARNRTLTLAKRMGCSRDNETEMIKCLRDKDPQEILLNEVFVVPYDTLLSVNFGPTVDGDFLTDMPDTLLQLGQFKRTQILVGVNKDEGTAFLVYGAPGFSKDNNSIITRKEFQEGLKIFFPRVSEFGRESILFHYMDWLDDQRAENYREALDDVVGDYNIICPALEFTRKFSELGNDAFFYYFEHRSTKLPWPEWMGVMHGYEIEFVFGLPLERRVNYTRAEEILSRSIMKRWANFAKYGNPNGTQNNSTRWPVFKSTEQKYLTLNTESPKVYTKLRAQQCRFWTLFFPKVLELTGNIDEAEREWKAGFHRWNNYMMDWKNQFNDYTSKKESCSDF

[5] = Selectivity ratio of IC50 for electric eel AChE to IC50 for equine serum BCHE

Sequence of Cholinesterase (Equus caballus) (P81908 whole entry): as above

Row | Structure (SMILES) | inhibition [1] [%] | IC50 [2] [µM] | inhibition [3] [%] | IC50 [4] [µM] | Ratio IC50 [5]
1 | CNC(=O)Oc1ccc2c(c1)[C@]1(C)CCN(C)[C@@H]1N2C | 82.8 |  |  |  | 
2 | CN(C)CCCC1(c2ccc(F)cc2)OCc2cc(C(=O)NNC(=O)c3cccc(Cl)c3)ccc21 (stereo unspecified) | 84 | 1.8 | 93.5 | 3.9 | 0.46
3 | CN(C)CCCC1(c2ccc(F)cc2)OCc2cc(C(=O)NNC(=O)c3ccc(Cl)cc3)ccc21 (stereo unspecified) | 78.4 | 6.71 | 86.1 | 138 | 0.04
4 | Cc1cccc(C(=O)NNC(=O)c2ccc3c(c2)COC3(CCCN(C)C)c2ccc(F)cc2)c1 (stereo unspecified) | 85.7 | 117 | 82.6 | 88.7 | 1.32
5 | CN(C)CCCC1(c2ccc(F)cc2)OCc2cc(C(=O)NNC(=O)c3ccccc3O)ccc21 (stereo unspecified) | 85.7 | 296 | 59 | 89 | 3.32
6 | CN(C)CCCC1(c2ccc(F)cc2)OCc2cc(C(=O)NNC(=O)c3ccccc3N)ccc21 (stereo unspecified) | 84.4 | 118 | 84.5 | 68.2 | 1.72
7 | CN(C)CCCC1(c2ccc(F)cc2)OCc2cc(C(=O)NNC(=O)c3ccc(Br)cc3)ccc21 (stereo unspecified) | 76.2 | 118 | 78.3 | 190 | 0.62
8 | CN(C)CCCC1(c2ccc(F)cc2)OCc2cc(C(=O)NNC(=O)c3ccccc3)ccc21 (stereo unspecified) | 81.5 | 268 | 69.8 | 75.8 | 3.53
9 | CN(C)CCCC1(c2ccc(F)cc2)OCc2cc(C(=O)NNC(=O)c3ccccc3Br)ccc21 (stereo unspecified) | 84.1 | 7.81 | 85.2 | 2.11 | 3.7
10 | CN(C)CCCC1(c2ccc(F)cc2)OCc2cc(C(=O)NNC(=O)c3cccc([N+](=O)[O-])c3)ccc21 (stereo unspecified) | 73.3 | 137 | 79.3 | 185 | 0.74
11 | CN(C)CCCC1(c2ccc(F)cc2)OCc2cc(C(=O)NNC(=O)c3ccccc3I)ccc21 (stereo unspecified) | 82.6 | 146 | 81.8 | 77.9 | 1.87
12 | CN(C)CCCC1(c2ccc(F)cc2)OCc2cc(C(=O)NNC(=O)c3ccc(F)cc3)ccc21 (stereo unspecified) | 74.6 | 112 | 86.6 | 179 | 0.63
13 | CN(C)CCCC1(c2ccc(F)cc2)OCc2cc(C(=O)NNC(=O)c3ccc(N)cc3)ccc21 (stereo unspecified) | 85.5 | 129 | 83.2 | 5.98 | 21.6
14 | CN(C)CCCC1(c2ccc(F)cc2)OCc2cc(C(=O)NNC(=O)c3cccc(F)c3)ccc21 (stereo unspecified) | 73.3 | 141 | 77.1 | 185 | 0.76
15 | CN(C)CCCC1(c2ccc(F)cc2)OCc2cc(C(=O)NNC(=O)c3ccccc3[N+](=O)[O-])ccc21 (stereo unspecified) | 84.1 | 256 | 70.3 | 76.3 | 3.35
16 | COc1ccccc1C(=O)NNC(=O)c1ccc2c(c1)COC2(CCCN(C)C)c1ccc(F)cc1 (stereo unspecified) | 88.8 | 45.8 | 88.6 | 130 | 0.35
17 | CN(C)CCCC1(c2ccc(F)cc2)OCc2cc(C(=O)NNC(=O)c3ccccc3F)ccc21 (stereo unspecified) | 85.5 | 111 | 84.4 | 71.4 | 1.55
18 | CN(C)CCCC1(c2ccc(F)cc2)OCc2cc(C(=O)NNC(=O)c3cccc(O)c3)ccc21 (stereo unspecified) | 88.2 | 197 | 64.4 | 129 | 1.52
19 | CN(C)CCCC1(c2ccc(F)cc2)OCc2cc(C(=O)NNC(=O)c3cccc(I)c3)ccc21 (stereo unspecified) | 85.4 | 127 | 83.7 | 70.2 | 1.81
20 | CN(C)CCCC1(c2ccc(F)cc2)OCc2cc(C(=O)NNC(=O)c3ccc(I)cc3)ccc21 (stereo unspecified) | 85.5 | 210 | 76.4 | 5.88 | 35.7
21 | CN(C)CCCC1(c2ccc(F)cc2)OCc2cc(C(=O)NNC(=O)c3ccccc3Cl)ccc21 (stereo unspecified) | 85.4 | 116 | 81.4 | 69.3 | 1.67
22 | Cc1ccc(C(=O)NNC(=O)c2ccc3c(c2)COC3(CCCN(C)C)c2ccc(F)cc2)cc1 (stereo unspecified) | 76.6 | 268 | 69.7 | 158 | 1.69
23 | CN(C)CCCC1(c2ccc(F)cc2)OCc2cc(C(=O)NNC(=O)c3cccc(Br)c3)ccc21 (stereo unspecified) | 88.8 | 115 | 80.1 | 130 | 0.88
24 | Cc1ccccc1C(=O)NNC(=O)c1ccc2c(c1)COC2(CCCN(C)C)c1ccc(F)cc1 (stereo unspecified) | 72.4 | 115 | 83.4 | 233 | 0.49
25 | CN(C)CCCC1(c2ccc(F)cc2)OCc2cc(C(=O)NNC(=O)c3ccc(O)cc3)ccc21 (stereo unspecified) | 73.2 | 117 | 84.6 | 192 | 0.61
26 | COc1cc(C(=O)NNC(=O)c2ccc3c(c2)COC3(CCCN(C)C)c2ccc(F)cc2)ccc1O (stereo unspecified) | 84.1 | 112 | 81.3 | 76.9 | 1.45
27 | CN(C)CCCC1(c2ccc(F)cc2)OCc2cc(C(=O)NNC(=O)c3ccc([N+](=O)[O-])cc3)ccc21 (stereo unspecified) | 74.6 | 125 | 75.8 | 169 | 0.74
28 | COc1ccc(C(=O)NNC(=O)c2ccc3c(c2)COC3(CCCN(C)C)c2ccc(F)cc2)cc1 (stereo unspecified) | 72.2 | 124 | 76.4 | 196 | 0.63
